# Experimental data as given in US20100113415A1, “EPHA4 RTK INHIBITORS FOR TREATMENT OF NEUROLOGICAL AND NEURODEGENERATIVE DISORDERS AND CANCER” (priority 2008, published 2010).
# Assays:
# [1] = molecular target: T1, human form of EphA4 receptor over-expressed in CHO-K1 cells (Homo sapiens, UniProt P54764); assay: EphA4 cell-based assay (pGAS-Luc luciferase reporter in EphA4-transfected CHO-K1 cells); conditions: for IC50: inflexion point, luciferase, read-out: EphA4 Cell Assay IP; for EphA4 Cell Assay maximum percent inhibition: value in parentheses
# T1 construct: expressed in transfected cells; host or cells: CHO-K1
# Description: A cell-based assay was used to measure the potency of the compounds on the human form of EphA4 receptor over-expressed in Chinese Hamster Ovary cell line, CHO-K1 cells (Merck Collection). The cell assay was based on a novel signaling pathway of EphA4, which involves activation of the tyrosine kinase Jak2 and the transcriptional activator Stat3 (39).
# Reagents: The expression constructs of EphA4 were subcloned into the expression vector pCMV6-XL5 (Origene, MD, USA) (clone from Merck Kinase Library). The luciferase construct that was linked to the Stat1-responsive enhancer (pGAS-Luc) was bought from Stratagene (USA). The renilla construct that linked to an empty vector CMV was bought from Promega (USA).
# (§1) Transfection and Luciferase Assay: CHO-K1 cells were plated in T-175 cell culture bottle in DMEM medium supplemented with 10% fetal bovine serum, 1 mM sodium pyruvate, 2 mM L-glutamine and 1.5 g/L sodium bicarbonate. When cell reached 70-80% confluence, transfections were performed in T-175 culture flasks, using Lipofectamine 2000™ transfection reagent (Invitrogen) according to the manufacturer's directions. For the luciferase assay CHO-K1 cells were co-transfected the next day with 50 μg of pGAS-Luc, 70 μg of EphA4, and 5 μg of empty vector pRL-CMV, which encoded the Renilla luciferase, and was included in the transfection mix for normalization. Six hours after transfection the cells were trypsinized and plated at 4.105 cells/ml into 96 well Black/Clear Poly-D-Lysine coated plates (Biocoat) that had been pre-spotted with compounds. Cells were lysed the next day using the Reporter Lysis Buffer (Promega), and the luciferase activity was measured using the Dual Luciferase Assay (Promega) following the manufacturer's directions. The Firefly and Renilla luminescences are read consecutively on a Top-Count (Perkin-Elmer). Results are expressed as a ratio of the two luminescence: Firefly Luciferase/Renilla Luciferase. Cell viability was assessed on parallel plates using the Cell Glo Assay (Promega) following the manufacturer's directions. Results are expressed as percent of cell death in comparison with vehicle-treated wells.
# Compounds were titrated in duplicate at 10 points concentration starting at 100 μM with a 1.5 fold increment. Concentration-response curves were represented and the concentrations at the inflexion point (IP) were calculated. The maximum effect was given by the maximum percent inhibition calculated from the results of the control wells (containing only DMSO).
# [2] = system: C2C12 cells; assay: Toxicity (percent of cell death), C2C12 cells; assay type: cell-based; conditions: 20 μM
# Method: EphA4 kinase inhibition is assessed by both an enzymatic assay measuring the phosphorylation of a purified recombinant EphA4 kinase and a cell-based assay using the activation of pGas-Luciferase system in EphA4-transfected CHO-K1 cells. The functional effects of EphA4 RTK inhibitors on cell motility and proliferation is evaluated by the scratch wound assay. The effect of EphA4 RTK inhibitors is also directly measured on the cell confluence. The counterscreen assays (cell counterscreen, Src, Jak2 and P38α kinase) identified other potential inhibitory activities of compounds unrelated to EphA4 kinase. The toxicity is measured by the percent of cell death in the different cell assays. Values represent IC50 and IP in μM calculated from the dose-response curves. Values in parentheses give the maximum percent inhibition.
# [3] = system: CHO-K1 cells; assay: Cell viability (Cell Glo Assay) on parallel plates of the EphA4 cell assay; assay type: cell-based, Chinese Hamster; conditions: at 100 μM
# Method: as §1, with “Six hours after transfection the cells were trypsinized and plated at 4.105 cells/ml into 96 well Black/Clear Poly-D-Lysine coated plates (Biocoat) that had been pre-spotted with compounds.” left out
# [4] = system: C2C12 mouse myoblast cell line; assay: Scratch wound assay, C2C12 cells; assay type: cell-based; conditions: from AUC of % wound confluence; for IC50: Mus musculus, C2C12, inflexion point, read-out: Scratch Assay C2C12 Cells IP
# Method: Cell Cultures: C2C12 mouse myoblast cell line (ATCC, VA, USA) was maintained in culture in DMEM media supplemented with 10% fetal bovine serum, 1 mM sodium pyruvate, 1.5 g/L sodium bicarbonate, and 100 IU of penicillin, […] of streptomycin. The cells were then differentiated into myotubes with DMEM supplemented with 2% horse serum for 3 days in 24 well ImageLock™ plate (Essen Instruments, MI, USA).
# (§2) Scratch wound assays are commonly used to assess the effects of drugs and drug candidates on the cellular proliferation and/or migration associated with wound closing. The IncuCyte™ system (Essen Instruments, MI, USA), an automated imaging platform, provides ongoing, real-time images and quantitative data generated throughout the wound-closing process. Cells were maintained in 24 well ImageLock™ (Essen Instruments, MI, USA) at 37° C. and 95% CO2/5% O2, until a confluent monolayer was achieved. A single scratch wound was then created in each well using the Essen Woundmaker™ (Essen Instruments, MI, USA). It induced a mechanical scratch of the cell monolayer using plastic pipette tips (10-20 μl pipette tips, Eppendorff). Dead cells and other debris produced by the scratch were immediately washed with regular growth media. Cells were then treated with pharmacological agents and were placed into the IncuCyte™ at 37° C. and 95% CO2/5% O2, for two to three days. During this time, the wound area within each well was repeatedly imaged at fixed time intervals (every three hours). The IncuCyte™ scratch wound software generates a “wound mask” for each well. An initial wound mask is created for the first image (at time 0) that clearly delineates the border of the wound. A revised mask is generated for each subsequent image to track wound closure. Wound closure can be automatically monitored using the wound confluence (% confluence). Wound confluence can be graphed over time to evaluate the characteristics of wound closing in the presence of pharmacological agents.
# (§3) The calculation of the area under the curve (AUC) of the % confluence function of the time gave a quantitative measurement of compounds efficacy on the scratch wound closing. Compounds were titrated in quadruplicate at 5 points concentration starting at 20 μM with a two-fold increment. The percentage of inhibition was calculated from the AUCs at each dose in comparison with the AUCs of the control wells (1% DMSO). Concentration-response curves were represented and the concentrations at the inflexion point (IP) were calculated. The maximum effect was given by the maximum percent inhibition.
# [5] = system: Primary Rat cortical astrocytes; assay: Scratch wound assay, astrocytes; assay type: cell-based; conditions: from AUC of % wound confluence; for IC50: Rattus norvegicus, Astrocyte, inflexion point, read-out: Scratch Assay Astrocytes IP
# Method: Primary Rat cortical astrocytes were purchased from Lonza (Walkersvelle Inc., MA, USA). Cells were plated in culture flasks at a density of 1.106-3.106 cells/ml, and maintained at 37° C. and 95% CO2/5% O2, in Astrocyte Growth Medium Bulletkit™ (Lonza Walkersville Inc., MA, USA). When astrocyte cultures reached confluence, cells were trypsinized and replated at 6.105 cells/ml onto 24 well ImageLock™ plate (Essen Instruments, MI, USA).
# as §2, §3
# T1 sequence (P54764 20-986): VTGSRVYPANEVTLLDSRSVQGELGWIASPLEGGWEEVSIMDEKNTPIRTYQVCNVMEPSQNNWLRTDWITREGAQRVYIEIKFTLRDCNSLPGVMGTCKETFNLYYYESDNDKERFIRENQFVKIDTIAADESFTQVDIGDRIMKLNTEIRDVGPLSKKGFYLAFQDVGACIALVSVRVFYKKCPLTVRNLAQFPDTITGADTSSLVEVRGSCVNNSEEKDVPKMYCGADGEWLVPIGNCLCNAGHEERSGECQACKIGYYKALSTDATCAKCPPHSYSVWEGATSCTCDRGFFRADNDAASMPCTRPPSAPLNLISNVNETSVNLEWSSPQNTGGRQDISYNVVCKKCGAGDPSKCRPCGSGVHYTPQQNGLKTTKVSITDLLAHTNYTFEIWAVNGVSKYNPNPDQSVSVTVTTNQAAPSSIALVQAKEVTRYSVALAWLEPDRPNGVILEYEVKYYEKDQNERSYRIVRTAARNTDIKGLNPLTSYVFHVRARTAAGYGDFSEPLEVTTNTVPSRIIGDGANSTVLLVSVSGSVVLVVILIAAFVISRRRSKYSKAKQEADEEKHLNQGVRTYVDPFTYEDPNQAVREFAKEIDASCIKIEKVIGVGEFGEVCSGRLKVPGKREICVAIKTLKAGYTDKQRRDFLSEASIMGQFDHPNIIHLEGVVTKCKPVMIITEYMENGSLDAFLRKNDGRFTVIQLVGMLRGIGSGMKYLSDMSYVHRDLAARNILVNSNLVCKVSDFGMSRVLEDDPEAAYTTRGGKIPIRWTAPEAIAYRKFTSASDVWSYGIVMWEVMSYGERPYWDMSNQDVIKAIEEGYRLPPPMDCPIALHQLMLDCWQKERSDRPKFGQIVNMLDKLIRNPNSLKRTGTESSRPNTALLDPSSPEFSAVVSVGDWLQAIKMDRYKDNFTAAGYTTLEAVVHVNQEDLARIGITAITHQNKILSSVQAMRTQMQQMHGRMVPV
compound,measurement,setting,value
CC1CCc2c(-c3ccccc3Cl)nc3[nH]nc(N)c3c2C1 (stereo not shown) [Example 63],IC50,[1],7200 nM
same,EphA4 Cell Assay maximum percent inhibition,[1],55%
same,Max Toxicity C2C12 in cells % of cell death,[2],3%
same,Max Toxicity Cell Assay % of cell death,[3],68% at 100 μM
same,IC50,[4],3100 nM
same,Scratch Assay C2C12 Cells max inhibition in %,[4],46%
same,IC50,[5],49000 nM
same,Scratch Assay Astrocytes max inhibition in %,[5],33%
Cc1ccccc1-c1nc2[nH]nc(N)c2c2c1CCC(C)(C)C2 [Example 67],IC50,[1],2300 nM
same,EphA4 Cell Assay maximum percent inhibition,[1],46%
same,Max Toxicity C2C12 in cells % of cell death,[2],10%
same,Max Toxicity Cell Assay % of cell death,[3],76% at 100 μM
same,IC50,[4],500 nM
same,Scratch Assay C2C12 Cells max inhibition in %,[4],78%
same,IC50,[5],1400 nM
same,Scratch Assay Astrocytes max inhibition in %,[5],66%
